The record followed here is patent US20240287042A1, “NOVEL COMPOUND HAVING INHIBITORY ACTIVITY AGAINST PENDRIN, AND PHARMACEUTICAL USES THEREOF” (UIF (University Industry Foundation), Yonsei University, priority 2021, published 2024).

Structures are written as SMILES.

The subject of experiment [1] is human nasal epithelial cells (HNE). Briefly: Volume of airway surface liquid (ASL) in IL-4-treated differentiated human nasal epithelial cells. The conditions noted are these: 30 μM, IL-4 10 ng/ml, 48 hours. Type of experiment: cell-based. Here is the method: For differentiation of primary cultures of human nasal epithelial cells, cells were cultured in Transwell (Transwell, Costar Co., Cambridge, MA) with 0.45 µm pores at a density of 2×10^5 cells/cm^2. Cells were cultured in a 1:1 mixed culture medium of Dulbecco's modified Eagle's medium (Lonza) and bronchial epithelial growth medium (Lonza) supplemented with the following growth factors, while changing the medium every 2 to 3 days. The cells were cultured in a precipitated state in the culture medium for the first 7 days, and during the subsequent culture period, and cultured by exposing the upper part of transwell to air. After establishment of the air-liquid interface (ALI), cells were cultured and differentiated for 21 days. At all stages of culture, the cell culture medium was maintained at 5% CO2 and 37° C.
Vehicle, IL-4 (10 ng/ml), and YPI-H05 (30 μM) were added to the basal fluid of transwell in which differentiated NHE cells expressing normal pendrin were growing, and cultured at 37° C. under 5% CO2 in an incubator for 48 hours. After cultured, a round filter paper with a diameter of 10 mm was placed in the lumen side of the transwell and left for 10 seconds to absorb moisture from the airway surface liquid. Changes in the volume of airway surface liquid were measured through increased filter paper weight using a precision electronic balance.

Another experiment has as its system C57BL/6N mice. Kind of experiment: Diuretic effect in mice (urine volume). The conditions noted are these: i.p. twice at 3 h interval, urine volume after 6 hours, alone. Type of experiment: in vivo. Here is the method: Wild-type male C57BL/6N mice aged 8 weeks and weighing 20-24 g were purchased from Orient Bio (Seongnam, South Korea). Before the experiment, water and diet were restricted, and the bladder was stimulated to induce urine. A 100 mg/ml stock concentration of YPI-A4948 dissolved in DMSO was prepared to have final concentrations of 0.001 mg/kg/100 ul, 0.005 mg/kg/100 ul and […] mg/kg/100 ul, 0.1 mg/kg/100 ul, 0.5 mg/kg/100 ul and 1 mg/kg/100 ul (1% DMSO+DW), respectively, and injected intraperitoneally twice with an interval of 3 hours. After 6 hours, the urine volume of each group of mice was measured.

The next experiment addresses T1, human wild-type pendrin (Homo sapiens, UniProt O43511).
T1 construct: expressed in transfected cells; host or cells: human alveolar epithelial cells (hAEC) overexpressing pendrin
T1 sequence (O43511 1-780): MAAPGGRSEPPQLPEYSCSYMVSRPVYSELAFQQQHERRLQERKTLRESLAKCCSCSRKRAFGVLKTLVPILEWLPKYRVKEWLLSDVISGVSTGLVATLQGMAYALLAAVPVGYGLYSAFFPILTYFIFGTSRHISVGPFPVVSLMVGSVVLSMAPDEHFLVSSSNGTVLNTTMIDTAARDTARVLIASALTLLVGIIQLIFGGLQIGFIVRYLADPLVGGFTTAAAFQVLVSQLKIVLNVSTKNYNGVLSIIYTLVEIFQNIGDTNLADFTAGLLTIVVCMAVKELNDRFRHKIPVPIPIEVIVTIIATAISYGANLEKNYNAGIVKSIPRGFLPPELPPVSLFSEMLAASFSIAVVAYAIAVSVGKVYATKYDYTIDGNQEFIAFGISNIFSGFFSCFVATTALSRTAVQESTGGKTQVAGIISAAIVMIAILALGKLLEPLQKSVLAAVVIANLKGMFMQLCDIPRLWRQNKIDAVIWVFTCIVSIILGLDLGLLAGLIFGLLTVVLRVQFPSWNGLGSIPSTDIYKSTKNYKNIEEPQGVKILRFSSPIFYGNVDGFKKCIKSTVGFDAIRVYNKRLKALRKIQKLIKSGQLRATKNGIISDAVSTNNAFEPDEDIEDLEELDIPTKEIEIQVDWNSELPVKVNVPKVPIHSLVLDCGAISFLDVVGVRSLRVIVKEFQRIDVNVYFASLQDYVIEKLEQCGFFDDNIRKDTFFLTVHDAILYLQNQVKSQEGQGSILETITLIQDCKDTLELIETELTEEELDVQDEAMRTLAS
Briefly: Pendrin Cl−/SCN− exchange activity in human alveolar epithelial cells (hAEC) overexpressing pendrin. Type of experiment: cell-based. The conditions noted are these: 0.3 μM to 30 μM, read-out: IC50 of human wild-type pendrin-mediated Cl−/SCN− exchange activity. As for the experimental part: In FIG. 13a, human alveolar epithelial cells (hAEC) overexpressing pendrin were treated with YPI-A4948 as a novel pendrin inhibitor from 0.3 μM to 30 μM, and the Cl^−/SCN^− exchange ability of SLC26A4 was measured by the change in YFP fluorescence when compared to before YPI-A4948 treatment. The IC50 of human wild-type pendrin-mediated Cl^−/SCN^− exchange activity was confirmed to be 0.9 μM.

The test system of another experiment is SLC26A4 (pendrin). Kind of experiment: Pendrin protein and mRNA expression after LPS in hAEC. Type of experiment: cell-based, human.
Another experiment has as its target T2, SLC26A6 (Homo sapiens, UniProt Q9BXS9).
T2 construct: expressed in transfected cells
T2 sequence (Q9BXS9 1-759): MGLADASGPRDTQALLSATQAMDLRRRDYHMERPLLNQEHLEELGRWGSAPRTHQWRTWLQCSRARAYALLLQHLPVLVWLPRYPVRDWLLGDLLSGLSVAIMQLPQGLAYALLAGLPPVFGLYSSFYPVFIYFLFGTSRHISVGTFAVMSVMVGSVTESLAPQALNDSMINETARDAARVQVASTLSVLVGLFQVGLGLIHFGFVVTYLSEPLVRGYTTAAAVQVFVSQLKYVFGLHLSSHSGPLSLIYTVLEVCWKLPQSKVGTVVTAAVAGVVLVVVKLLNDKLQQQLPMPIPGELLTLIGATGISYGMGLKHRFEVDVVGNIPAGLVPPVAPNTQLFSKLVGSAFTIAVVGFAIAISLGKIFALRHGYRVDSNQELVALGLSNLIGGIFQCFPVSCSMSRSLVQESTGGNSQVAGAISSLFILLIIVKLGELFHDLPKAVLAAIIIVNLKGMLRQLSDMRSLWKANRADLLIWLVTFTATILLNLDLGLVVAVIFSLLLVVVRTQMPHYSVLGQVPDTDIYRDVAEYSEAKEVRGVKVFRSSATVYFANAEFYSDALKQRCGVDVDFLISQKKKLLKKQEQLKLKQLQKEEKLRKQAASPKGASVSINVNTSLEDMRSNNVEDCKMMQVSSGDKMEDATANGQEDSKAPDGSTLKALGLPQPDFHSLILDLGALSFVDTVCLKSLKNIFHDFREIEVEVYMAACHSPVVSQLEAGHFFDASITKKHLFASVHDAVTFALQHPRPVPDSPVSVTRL
Briefly: SLC26A6 activity, YFP fluorescence in LN-215 cells. Type of experiment: cell-based. The conditions noted are these: FIG. 16. Here is the method:
In the case of SLC26A3 and SLC26A6, each transporter protein and halide sensitive YFP were expressed in LN-215 cells to measure the activity of the transporter protein.
Other details were carried out in the same manner as Example 5.

In the case of `Cc1ccc(C)c(N2CCN(C(=O)Cc3c(C(=O)O)[nH]c4ccc(Cl)cc34)CC2)c1` [YPI-H05, 5-chloro-3-(2-(4-(2,5-dimethylphenyl)piperazin-1-yl-)-2-oxoethyl)-1H-indole-2-carboxylic acid], the “Volume of airway surface liquid (ASL) reduced by IL-4” value in experiment [1] is on record as “significantly increased”.

Turning to `Cc1ccc2[nH]c(C(=O)O)c(CC(=O)N3CCN(c4c(C)cccc4Cl)CC3)c2c1` [YPI-A4948, 3-(2-(4-(2-Chloro-6-methylphenyl)piperazin-1-yl)-2-oxoethyl)-5-methyl-1H-indole-2-carboxylic acid], the “Dose from which a diuretic effect is exhibited” value in the experiment with C57BL/6N mice was no less than 0.01 mg/kg. In addition, the IC50 on human wild-type pendrin is 0.9 µM. Moreover, the “Protein expression level of SLC26A4 (pendrin)” value in the experiment on SLC26A4 (pendrin) (LPS treatment after YPI-A4948 pretreatment in vitro) is recorded as “inhibited by YPI-A4948 in a dose-dependent manner”. In addition, the “mRNA expression level of pendrin” value in the experiment with SLC26A4 (pendrin) (increased by LPS in vitro) is on record as “not statistically significantly reduced”. For the same compound, the “Effect on activity of SLC26A6” value on SLC26A6 is given as “did not inhibit”.
